In brackets after ≈: the same amount, converted by molar mass. Where a SMILES comes first, the peptide text is derived from it. Bridges are numbered along the chain shown (N, C = ends). [ ]: non-standard residue; d: D form. The star is where a group is joined. ξ: configuration not given here. NMeLeu(3ξ-Me) = CN[C@H](C(=O)O)C(C)C(C)C; d(cisHyp) = O=C(O)[C@H]1C[C@@H](O)CN1; Picolinoyl(3-OH) = O=C(c1ncccc1O)*; NMePhg = CN[C@H](C(=O)O)c1ccccc1; Sar = CNCC(=O)O
Assays:
Bacillus subtilis [1] = test: Antibacterial activity against Bacillus subtilis ATCC […] incubated for 16 hrs; format: functional
[2] = tested on: Mycobacterium tuberculosis; test: Antibacterial activity against Mycobacterium tuberculosis H37Rv ATCC 27294 incubated […]; format: functional
Enterococcus faecium [3] = test: Antibacterial activity against Enterococcus faecium CCUG 37832 incubated for 18 hrs by WST1 assay; format: functional; details: CCUG 37832, 18 h
Enterococcus faecium [4] = test: Antibacterial activity against Enterococcus faecium CTC 492 incubated for 18 hrs by WST1 assay; format: functional; details: CTC 492, 18 h
Haemophilus influenzae [5] = test: Antibacterial activity against Haemophilus influenzae incubated for 18 to 20 hrs by microbroth dilution method; format: functional
Staphylococcus aureus [6] = test: Antibacterial activity against hospital associated methicillin-resistant Staphylococcus aureus incubated for 18 to 20 hrs by microbroth dilution method; format: functional
Moraxella catarrhalis [7] = test: Antibacterial activity against Moraxella catarrhalis incubated for 18 to 20 hrs by microbroth dilution method; format: functional
Staphylococcus aureus [8] = test: Antibacterial activity against community associated methicillin-resistant Staphylococcus aureus incubated for 18 to 20 hrs by microbroth dilution method; format: functional
Enterococcus faecalis [9] = test: Antibacterial activity against Enterococcus faecalis incubated for 18 to 20 hrs by microbroth dilution method; format: functional
Streptococcus agalactiae = test: Antibacterial activity against Streptococcus agalactiae incubated for 18 to 20 hrs by microbroth dilution method; format: functional
Streptococcus pyogenes = test: Antibacterial activity against Streptococcus pyogenes incubated for 18 to 20 hrs by microbroth dilution method; format: functional
[10] = Inhibition of Escherichia coli RNA polymerase
[11] = Inhibition of Staphylococcus aureus RNA polymerase
Bacillus subtilis [12] = test: Antibacterial activity against Bacillus subtilis DSM 347 incubated for 5 hrs by resazurin dye reduction based assay; format: functional, organism-based; details: DSM 347, 5 h
[13] = tested on: Staphylococcus epidermidis; test: Antibacterial activity against Staphylococcus epidermidis DSM 20044 incubated for 5 hrs by resazurin dye reduction based assay; format: functional, organism-based; details: DSM 20044, 5 h
Staphylococcus aureus [14] = test: Antibacterial activity against methicillin-sensitive Staphylococcus aureus; format: functional
Streptococcus pneumoniae = test: Antibacterial activity against Streptococcus pneumoniae ATCC 51916 by microplate assay; format: functional
Staphylococcus aureus [15] = test: Antibacterial activity against Staphylococcus aureus ATCC 13709 by microplate assay; format: functional
Staphylococcus aureus [16] = test: Antibacterial activity against methicillin-resistant Staphylococcus aureus infected in CD1 mouse assessed as mouse survival rate at 10 mg/kg; format: functional
Enterococcus faecalis [17] = test: Antibacterial activity against Enterococcus faecalis ATCC 29212 by microplate assay; format: functional
Bacillus anthracis = test: Antibacterial activity against Bacillus anthracis UM23C1-1 by microplate assay; format: functional
Moraxella catarrhalis [18] = test: Antibacterial activity against Moraxella catarrhalis; format: functional
Bacillus subtilis [19] = test: Antibacterial activity against Bacillus subtilis CMCC63501; format: functional
Staphylococcus aureus [20] = test: Antibacterial activity against Staphylococcus aureus […]; format: functional
Staphylococcus aureus [21] = test: Antibacterial activity against methicillin-resistant Staphylococcus aureus ATCC 43300; format: functional
Staphylococcus aureus [22] = test: Antibacterial activity against methicillin-resistant Staphylococcus aureus; format: functional
Escherichia coli [23] = test: Antibacterial activity against Escherichia coli; format: functional
Haemophilus influenzae [24] = test: Antibacterial activity against Haemophilus influenzae ATCC 49247 by broth microdilution assay; format: functional
Enterococcus faecalis [25] = test: Antibacterial activity against Enterococcus faecalis ATCC 19433 by broth microdilution assay; format: functional
Escherichia coli [26] = test: Antibacterial activity against Escherichia coli D21f2tolC by broth microdilution assay; format: functional
Clostridioides difficile = test: Antibacterial activity against Clostridioides difficile BI/NAP1/O27 by agar dilution method; format: functional
Pseudomonas aeruginosa [27] = test: Antibacterial activity against Pseudomonas aeruginosa ATCC 27853 by CLSI method; format: functional
Enterococcus [28] = test: Antibacterial activity against Enterococcus VRE-CUS by CLSI method; format: functional
Enterococcus [29] = test: Antibacterial activity against Enterococcus VRE-WMC by CLSI method; format: functional
Escherichia coli [30] = test: Antibacterial activity against Escherichia coli by CLSI method; format: functional
Moraxella catarrhalis [31] = test: Antibacterial activity against Moraxella catarrhalis ATCC 25238 by CLSI method; format: functional
Staphylococcus aureus [32] = test: Antibacterial activity against methicillin-resistant Staphylococcus aureus by CLSI method; format: functional
Escherichia coli [33] = test: Antibacterial activity against Escherichia coli ATCC 25922 by broth microdilution method; format: functional
Pseudomonas aeruginosa [34] = test: Antibacterial activity against Pseudomonas aeruginosa ATCC 25916 by broth microdilution method; format: functional
Staphylococcus aureus [35] = test: Antibacterial activity against Staphylococcus aureus ATCC 25925 by broth microdilution method; format: functional
Staphylococcus aureus [36] = test: Antibacterial activity against drug-resistant Staphylococcus aureus by broth microdilution method; format: functional
Escherichia coli [37] = test: Antibacterial activity against drug-resistant Escherichia coli by broth microdilution method; format: functional
Bacillus subtilis [38] = test: Antibacterial activity against Bacillus subtilis ATCC 63501 by broth microdilution method; format: functional

## COC(=O)N[C@H]1[C@@H](C)O[C@@H](O[C@H]2C/C=C(\C)[C@@H]3C=C[C@@H]4[C@@H](O[C@H]5C[C@@H](O[C@H]6C[C@@H](O)[C@@H](O[C@@H]7C[C@@H](O)[C@@H](OC)[C@H](C)O7)[C@H](C)O6)[C@@H](O)[C@H](C)O5)[C@@H](C)C[C@H](C)[C@H]4[C@]3(C)C(=O)C3=C(O)[C@@]4(C[C@@H](C)C(CO)=C[C@H]4/C=C/2C)OC3=O)C[C@]1(C)N
Bacillus subtilis [1]
  MIC: 1.5 to 12 µg/mL (≈ 1.3 to 10.4 µM)
[2]
  MIC: 16 to 32 µg/mL (≈ 13.8 to 27.6 µM)

## [O-][n+]1c2cccc(O)c2[n+]([O-])c2cccc(O)c21
Enterococcus faecium [3]
  MIC: 0.7 µg/mL (≈ 2.87 µM)
Enterococcus faecium [4]
  MIC: 0.35 µg/mL (≈ 1.43 µM)

## CC(C)C[C@H]1NC(=O)[C@@H](NC(=O)c2ncccc2O)[C@@H](C)OC(=O)[C@H](c2ccccc2)N(C)C(=O)[C@H](C)NC(=O)[C@H](C(C)C(C)C)N(C)C(=O)CN(C)C(=O)[C@H]2C[C@@H](O)CN2C1=O (stereo partly drawn) [VIRIFOGRISEIN I] ({Picolinoyl(3-OH)}-T[dL][d(cisHyp)][Sar][NMeLeu(3ξ-Me)]A[NMePhg]; ester 1-C)
Haemophilus influenzae [5]
  MIC: 16 µg/mL (≈ 18.2 µM)
Staphylococcus aureus [6]
  MIC: 1 to 2 µg/mL (≈ 1.14 to 2.28 µM)
Moraxella catarrhalis [7]
  MIC: 1 µg/mL (≈ 1.14 µM)
Staphylococcus aureus [8]
  MIC: 1 to 2 µg/mL (≈ 1.14 to 2.28 µM)
Enterococcus faecalis [9]
  MIC: 16 µg/mL (≈ 18.2 µM)
Streptococcus agalactiae
  MIC: 8 µg/mL (≈ 9.1 µM)
Streptococcus pyogenes
  MIC: 8 µg/mL (≈ 9.1 µM)

## CC[C@H](C)[C@H]1NC(=O)[C@@H](NC(=O)[C@H](C)[C@H](O)C(C)C)[C@@H](C)OC(=O)[C@H]2NC(=O)[C@@H](C(C)C)NC(=O)[C@@H](Cc3ccccc3)N(C)C(=O)[C@@H](NC1=O)c1ccc(cc1)O[C@H](C)[C@@](O)(CCl)/C=C\C(=O)NCC(=O)O2
[10]
  IC50: 200 to 2000 nM
[11]
  IC50: 200 to 4000 nM

## CCC(C)CCC[C@H](C(=O)OC)[C@@H](O)c1cccc2nc3c(C(=O)O)cccc3nc12 (some centres undefined)
Bacillus subtilis [12]
  IC50: 9.1 µg/mL (≈ 21.4 µM)
[13]
  IC50: 6.1 µg/mL (≈ 14.4 µM)

## CC1=CC[C@@H]2[C@H]3/C(O)=C/C(=O)[C@@H](C)C(=O)O[C@H](C)/C=C/C=C\[C@@H](C)[C@H]3C=C[C@H]2C1
Staphylococcus aureus [14]
  MIC: ≤ 0.25 µg/mL
Streptococcus pneumoniae
  MIC: 0.06 to 0.25 µg/mL (≈ 0.151 to 0.63 µM)
Staphylococcus aureus [15]
  MIC: 0.06 to 0.25 µg/mL (≈ 0.151 to 0.63 µM)
Staphylococcus aureus [16]
  survival at 10 mg/kg: 90%
Enterococcus faecalis [17]
  MIC: 0.06 to 0.25 µg/mL (≈ 0.151 to 0.63 µM)
Bacillus anthracis
  MIC: 0.03 µg/mL (≈ 0.0757 µM)
Moraxella catarrhalis [18]
  MIC: 4 µg/mL (≈ 10.1 µM)

## COC(=O)N[C@H]1[C@@H](C)O[C@@H](O[C@H]2C/C=C(\C)[C@@H]3C=C[C@@H]4[C@@H](O[C@H]5C[C@@H](O[C@H]6C[C@@H](O)[C@@H](O[C@@H]7C[C@@H](O)[C@@H](OC)[C@H](C)O7)[C@H](C)O6)[C@@H](O)[C@H](C)O5)[C@@H](C)C[C@H](C)[C@H]4[C@]3(C)C(=O)C3=C(O)[C@@]4(C[C@@H](C)C(CO)=C[C@H]4/C=C/2C)OC3=O)C[C@]1(C)[N+](=O)[O-]
Bacillus subtilis [1]
  MIC: 1.5 to 12 µg/mL (≈ 1.26 to 10.1 µM)
[2]
  MIC: 16 to 32 µg/mL (≈ 13.5 to 27 µM)
Bacillus subtilis [19]
  MIC: 1.6 to 3.1 µg/mL (≈ 1.35 to 2.61 µM)

## CCCC1(O)CC(=O)c2c(Cc3cc(=O)cc(O)o3)cccc2O1 (centres undefined)
Staphylococcus aureus [20]
  MIC: 16 µg/mL (≈ 48.4 µM)
Staphylococcus aureus [21]
  MIC: 2 µg/mL (≈ 6.05 µM)

## C/C(=C\C(=O)OCCCCCCCC(=O)Nc1c2sscc-2[nH]c1=O)C[C@@H]1OC[C@H](C[C@@H]2O[C@H]2[C@@H](C)[C@H](C)O)[C@@H](O)[C@H]1O
Staphylococcus aureus [22]
  MIC: ≤ 0.03 µg/mL
Escherichia coli [23]
  MIC: 0.5 µg/mL (≈ 0.78 µM)

## CC[C@H](C)[C@H]1NC(=O)[C@@H](NC(=O)[C@H](C)[C@H](O)C(C)C)[C@@H](C)OC(=O)[C@H]2NC(=O)[C@@H](C(C)C)NC(=O)[C@@H](Cc3ccccc3)N(C)C(=O)[C@@H](NC1=O)c1ccc(cc1)O[C@H](C)[C@@](O)(CO)/C=C\C(=O)NCC(=O)O2
Haemophilus influenzae [24]
  MIC: 12 µg/mL (≈ 11.7 µM)
Enterococcus faecalis [25]
  MIC: 12 µg/mL (≈ 11.7 µM)
[10]
  IC50: 200 to 2000 nM
Escherichia coli [26]
  MIC: 0.2 µg/mL (≈ 0.196 µM)
[11]
  IC50: 200 to 4000 nM

## CCC(C)CCC[C@H](C(=O)OC)[C@@H](O)c1cccc2nc3c(C(=O)OC)cccc3nc12 (some centres undefined)
Bacillus subtilis [12]
  IC50: 3.6 µg/mL (≈ 8.21 µM)
[13]
  IC50: 3.6 µg/mL (≈ 8.21 µM)

## C=C(NC(=O)c1csc(-c2nc3c(cc2O)-c2nc(cs2)C(=O)N[C@@H]([C@@H](C)O)C(=O)N/C(=C/C)c2nc(cs2)C(=O)N[C@H]2C[C@H](O)C(=O)OCc4cccc5[nH]c(c(C)c45)C(=O)SC[C@H](NC(=O)c4csc2n4)c2nc-3cs2)n1)C(N)=O
Clostridioides difficile
  MIC: 0.01 µg/mL (≈ 0.00818 µM)
Pseudomonas aeruginosa [27]
  MIC: > 4 µg/mL
Enterococcus [28]
  MIC: 0.12 µg/mL (≈ 0.0982 µM)
Enterococcus [29]
  MIC: 0.12 µg/mL (≈ 0.0982 µM)
Escherichia coli [30]
  MIC: > 4 µg/mL
Moraxella catarrhalis [31]
  MIC: 0.5 µg/mL (≈ 0.409 µM)
Staphylococcus aureus [32]
  MIC: 0.03 to 0.25 µg/mL (≈ 0.0245 to 0.205 µM)

## C[C@@H]1C/C=C2\SC[C@@H](NC(=O)c3coc(n3)C[C@@H](O)C[C@H](O)/C=C/C=C/CNC2=O)C(=O)O1
Escherichia coli [33]
  MIC: 32 µg/mL (≈ 67 µM)
Pseudomonas aeruginosa [34]
  MIC: 32 µg/mL (≈ 67 µM)
Staphylococcus aureus [35]
  MIC: 8 to 16 µg/mL (≈ 16.8 to 33.5 µM)
Staphylococcus aureus [36]
  MIC: 8 to 16 µg/mL (≈ 16.8 to 33.5 µM)
Escherichia coli [37]
  MIC: 32 µg/mL (≈ 67 µM)
Bacillus subtilis [38]
  MIC: 8 to 16 µg/mL (≈ 16.8 to 33.5 µM)
